Measurements published in patent US20260078130A1, “NAMPT MODULATORS, PREPARATIONS, AND USES THEREOF” (SIRONAX LTD., priority 2022, published 2026).
Like-named read-outs stand apart in the source and are kept apart here.

Key:
[1] = target: T1, human enzyme NAMPT (full length) (Homo sapiens, UniProt P43490); test: NMN fluorescence biochemical assay (stimulation of NMN synthesis by NAMPT); settings: for EC50: concentration giving half-maximal activation, read-out: Enzymatic EC50; for Enzymatic Emax: fold change of maximal activation compared to DMSO
T1 construct: human enzyme NAMPT (full length)
T1 sequence (P43490 whole entry): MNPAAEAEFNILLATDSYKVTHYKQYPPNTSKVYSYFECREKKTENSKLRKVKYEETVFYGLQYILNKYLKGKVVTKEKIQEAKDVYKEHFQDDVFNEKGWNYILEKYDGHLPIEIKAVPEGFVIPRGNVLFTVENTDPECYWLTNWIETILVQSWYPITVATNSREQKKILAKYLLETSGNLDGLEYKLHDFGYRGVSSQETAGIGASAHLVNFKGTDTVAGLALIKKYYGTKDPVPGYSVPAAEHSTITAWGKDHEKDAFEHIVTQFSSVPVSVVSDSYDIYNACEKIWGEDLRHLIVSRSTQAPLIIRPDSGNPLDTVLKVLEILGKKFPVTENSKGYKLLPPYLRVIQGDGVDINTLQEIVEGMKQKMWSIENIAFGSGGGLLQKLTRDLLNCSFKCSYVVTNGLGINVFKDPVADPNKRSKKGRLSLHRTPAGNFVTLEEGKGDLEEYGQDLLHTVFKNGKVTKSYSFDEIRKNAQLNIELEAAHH
Procedure, shortened: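 Full-length human NAMPT (100 nM) was preincubated 15 min at 37 °C with compound in 50 mM Tris-HCl pH 7.5, 10 mM MgCl2, 2 mM DTT, then reacted 1 h at 37 °C with 50 μM NAM, 100 μM PRPP, 4 mM ATP (stated solution concentrations). NMN was derivatised with acetophenone/KOH then formic acid and read at Ex/Em 382/445 nm; EC50 and Emax (fold over DMSO) reported.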

[2] = tested on: endogenous NAMPT in U2OS cells; test: Cellular NAD+ modulation assay (NAD/NADH-Glo, U2OS cells); format: cell-based; settings: Homo sapiens; for maximal fold induction: read-out: Cellular Emax
Procedure, shortened: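 Endogenous NAMPT stimulation in U2OS cells treated with compound dilution series for 24 h at 37 °C. Cells lysed with DTAB base, acid-treated 15 min at 60 °C, neutralized, NAD+ read by NAD/NADH-Glo luminescence after 40 min at room temperature. EC50 and Emax (fold over DMSO) derived.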

[3] = NMN synthesis by purified human NAMPT (100 nM)
[4] = 24 hours incubation with compound
[5] = NMN fluorescence assay, purified human NAMPT 100 nM
[6] = 24 hours incubation, cellular NAD+

| Compound | EC50 [1, 3] | Enzymatic Emax [1] | EC50 [2, 4] | EC50 [1, 5] | EC50 [2, 6] | maximal fold induction [2, 4] | maximal fold induction [2, 6] |
| --- | --- | --- | --- | --- | --- | --- | --- |
| O=C1CCc2ccccc2N1Cc1ccc(O)cc1 [Compound 3, 1-(4-hydroxybenzyl)-3,4-dihydroquinolin-2(1H)-one] | ≥ 5 µM | B (3≥B>2) | 5 to 50 µM | – | – | 1.2 to 1.5 | – |
| CC1c2cc(CN3CCOCC3)ccc2C(=O)N1Cc1ccc2[nH]c(=O)oc2c1 (stereo not drawn) [Compound 143, 6-((3-methyl-5-(morpholinomethyl)-1-oxoisoindolin-2-yl)methyl)benzo[d]oxazol-2(3H)-one] | ≥ 5 µM | A (A>3) | 0.5 to 5 µM | – | – | > 1.5 | – |
| Cc1ccc2c(c1)CN(Cc1ccc3[nH]c(=O)oc3c1)C2=O [Compound 48, 6-((5-methyl-1-oxoisoindolin-2-yl)methyl)benzo[d]oxazol-2(3H)-one] | ≥ 5 µM | B (3≥B>2) | 0.5 to 5 µM | – | – | > 1.5 | – |
| COc1ccc(CN2C(=O)c3ncsc3C2Cc2c(Cl)cnn2C)cc1 (stereo not drawn) [Compound 615, 6-((4-chloro-1-methyl-1H-pyrazol-5-yl)methyl)-5-(4-methoxybenzyl)-5,6-dihydro-4H-pyrrolo[3,4-d]thiazol-4-one] | – | B (3≥B>2) | – | ≥ 5 µM | 0.5 to 5 µM | – | 1.2 to 1.5 |
| COc1ccc2c(c1)CN(Cc1ccc(O)cc1)C2=O [Compound 35, 2-(4-hydroxybenzyl)-5-methoxyisoindolin-1-one] | 0.5 to 5 µM | A (A>3) | 0.5 to 5 µM | – | – | 1.2 to 1.5 | – |
| CC1c2cc(C3CCCC3)ccc2C(=O)N1Cc1ccc2[nH]c(=O)oc2c1 (single isomer, unassigned) [Compound 304] | 0.5 to 5 µM | C (2≥C) | 0.5 to 5 µM | – | – | 1.2 to 1.5 | – |
| O=C1c2ccc(N3CCCC3)cc2CN1Cc1ccc2[nH]c(=O)oc2c1 [Compound 300, 6-((1-oxo-5-(pyrrolidin-1-yl)isoindolin-2-yl)methyl)benzo[d]oxazol-2(3H)-one] | ≥ 5 µM | C (2≥C) | 5 to 50 µM | – | – | 1.2 to 1.5 | – |
| Cn1ncc(Cl)c1CC1c2cc(C3CN(C(=O)OC(C)(C)C)C3)ccc2C(=O)N1CC1CC2(CNC(=O)O2)C1 (stereo not drawn) [Compound 514, tert-butyl 3-(3-((4-chloro-1-methyl-1H-pyrazol-5-yl)methyl)-1-oxo-2-((6-oxo-5-oxa-7-azaspiro[3.4]octan-2-yl)methyl)isoindolin-5-yl)azetidine-1-carboxylate] | – | A (A>3) | – | 0.5 to 5 µM | 0.5 to 5 µM | – | > 1.5 |
| O=C1c2c(Br)cccc2CN1Cc1ccc(O)cc1 [Compound 29, 7-bromo-2-(4-hydroxybenzyl)isoindolin-1-one] | 0.5 to 5 µM | A (A>3) | 5 to 50 µM | – | – | > 1.5 | – |
| O=C1c2ccc(Nc3ccccc3)cc2C(=O)N1Cc1ccc(O)cc1 [Compound 15, 2-(4-hydroxybenzyl)-5-(phenylamino)isoindoline-1,3-dione] | 0.5 to 5 µM | B (3≥B>2) | < 0.5 µM | – | – | ≤ 1.2 | – |
| Cn1ncc(Cl)c1CC1c2cc(Cl)ncc2C(=O)N1CC1CC2(CNC(=O)O2)C1 (stereo not drawn) [Compound 524, 2-((6-chloro-1-((4-chloro-1-methyl-1H-pyrazol-5-yl)methyl)-3-oxo-1,3-dihydro-2H-pyrrolo[3,4-c]pyridin-2-yl)methyl)-5-oxa-7-azaspiro[3.4]octan-6-one] | – | C (2≥C) | – | ≥ 5 µM | 0.5 to 5 µM | – | > 1.5 |
| Cc1cccc2c1C(=O)N(Cc1ccc(O)cc1)C2=O [Compound 295, 2-(4-hydroxybenzyl)-4-methylisoindoline-1,3-dione] | 0.5 to 5 µM | C (2≥C) | 0.5 to 5 µM | – | – | 1.2 to 1.5 | – |

Continued, in another order:

| EC50 [1, 3] | Enzymatic Emax [1] | EC50 [2, 4] | EC50 [1, 5] | EC50 [2, 6] | Compound | maximal fold induction [2, 4] | maximal fold induction [2, 6] |
| --- | --- | --- | --- | --- | --- | --- | --- |
| < 0.5 µM | B (3≥B>2) | < 0.5 µM | – | – | O=C1c2ccccc2C(Cc2cnccc2Cl)N1Cc1ccc2[nH]c(=O)oc2c1 (stereo not drawn) [Compound 175, 6-((1-((4-chloropyridin-3-yl)methyl)-3-oxoisoindolin-2-yl)methyl)benzo[d]oxazol-2(3H)-one] | > 1.5 | – |
| – | B (3≥B>2) | – | ≥ 5 µM | 0.5 to 5 µM | COc1ccc(CN2C(=O)c3cnccc3C2Cc2c(C)ccnc2C#N)cc1 (stereo not drawn) [Compound 621, 3-((2-(4-methoxybenzyl)-3-oxo-2,3-dihydro-1H-pyrrolo[3,4-c]pyridin-1-yl)methyl)-4-methylpicolinonitrile] | – | > 1.5 |
| ≥ 5 µM | B (3≥B>2) | 0.5 to 5 µM | – | – | O=C1c2ccccc2C(Cc2ccncc2)N1Cc1ccc2[nH]c(=O)oc2c1 (stereo not drawn) [Compound 130, 6-((1-oxo-3-(pyridin-4-ylmethyl)isoindolin-2-yl)methyl)benzo[d]oxazol-2(3H)-one] | > 1.5 | – |
| 0.5 to 5 µM | A (A>3) | < 0.5 µM | – | – | N#Cc1ncccc1CC1c2ccccc2C(=O)N1Cc1ccc2[nH]c(=O)oc2c1 (stereo not drawn) [Compound 201, 3-((3-oxo-2-((2-oxo-2,3-dihydrobenzo[d]oxazol-6-yl)methyl)isoindolin-1-yl)methyl) picolinonitrile] | > 1.5 | – |
| < 0.5 µM | A (A>3) | 0.5 to 5 µM | – | – | O=C1c2ccccc2C(Cc2ncccc2Br)N1Cc1cc2oc(=O)[nH]c2cc1F (stereo not drawn) [Compound 223, 6-((1-((3-bromopyridin-2-yl)methyl)-3-oxoisoindolin-2-yl)methyl)-5-fluorobenzo[d]oxazol-2(3H)-one] | > 1.5 | – |
| 0.5 to 5 µM | B (3≥B>2) | 0.5 to 5 µM | – | – | CCOc1ccccc1CC1c2ccccc2C(=O)N1Cc1ccc2[nH]c(=O)oc2c1 (stereo not drawn) [Compound 166, 6-((1-(2-ethoxybenzyl)-3-oxoisoindolin-2-yl)methyl)benzo[d]oxazol-2(3H)-one] | 1.2 to 1.5 | – |
| – | B (3≥B>2) | – | < 0.5 µM | < 0.5 µM | Cc1ccnc(Br)c1CC1c2ccccc2C(=O)N1C/C=C/c1c[nH]nn1 (stereo not drawn) [Compound 380, (E)-2-(3-(1H-1,2,3-triazol-4-yl)allyl)-3-((2-bromo-4-methylpyridin-3-yl)methyl) isoindolin-1-one] | – | > 1.5 |
| – | A (A>3) | – | < 0.5 µM | < 0.5 µM | COCc1ccc2c(c1)C(Cc1c(Cl)cnn1C)N(Cc1ccc3[nH]nnc3c1)C2=O (stereo not drawn) [Compound 436, 2-((1H-benzo[d][1,2,3]triazol-5-yl)methyl)-3-((4-chloro-1-methyl-1H-pyrazol-5-yl)methyl)-5-(methoxymethyl)isoindolin-1-one] | – | > 1.5 |
| 0.5 to 5 µM | B (3≥B>2) | < 0.5 µM | – | – | Cn1ncc(Cl)c1CC1c2ccc(F)cc2C(=O)N1CC1CC2(CNC(=O)O2)C1 (stereo not drawn) [Compound 310, 2-((1-((4-chloro-1-methyl-1H-pyrazol-5-yl)methyl)-5-fluoro-3-oxoisoindolin-2-yl)methyl)-5-oxa-7-azaspiro[3.4]octan-6-one] | > 1.5 | – |
| – | B (3≥B>2) | – | 0.5 to 5 µM | < 0.5 µM | COc1ccc(CN2C(=O)c3ccccc3C2Cc2c(Cl)cnn2C)cc1F (stereo not drawn) [Compound 517, 3-((4-chloro-1-methyl-1H-pyrazol-5-yl)methyl)-2-(3-fluoro-4-methoxybenzyl)isoindolin-1-one] | – | 1.2 to 1.5 |
| 0.5 to 5 µM | A (A>3) | 0.5 to 5 µM | – | – | O=C1c2ccc(CN3CCOCC3)cc2C(Cc2ccccc2)N1Cc1ccc2[nH]c(=O)oc2c1 (stereo not drawn) [Compound 123, 6-((3-benzyl-5-(morpholinomethyl)-1-oxoisoindolin-2-yl)methyl)benzo[d]oxazol-2(3H)-one] | > 1.5 | – |
| 0.5 to 5 µM | B (3≥B>2) | 0.5 to 5 µM | – | – | N#Cc1ccc(CC2c3ccccc3C(=O)N2Cc2ccc3[nH]c(=O)oc3c2)cc1 (stereo not drawn) [Compound 148, 4-((3-oxo-2-((2-oxo-2,3-dihydrobenzo[d]oxazol-6-yl)methyl)isoindolin-1-yl)methyl) benzonitrile] | > 1.5 | – |
| – | C (2≥C) | – | ≥ 5 µM | 0.5 to 5 µM | COC1CC2(CC(CN3C(=O)c4ccccc4C3Cc3c(Cl)cnn3C)C2)C1 (stereo not drawn) [Compound 599, 3-((4-chloro-1-methyl-1H-pyrazol-5-yl)methyl)-2-((6-methoxyspiro[3.3]heptan-2-yl)methyl)isoindolin-1-one] | – | 1.2 to 1.5 |
| – | B (3≥B>2) | – | < 0.5 µM | < 0.5 µM | Cc1ccnc(C#N)c1CC1c2ccccc2C(=O)N1C/C=C/c1c[nH]nn1 (stereo not drawn) [Compound 409, (E)-3-((2-(3-(1H-1,2,3-triazol-4-yl)allyl)-3-oxoisoindolin-1-yl)methyl)-4-methylpicolinonitrile] | – | > 1.5 |
| – | B (3≥B>2) | – | ≥ 5 µM | 0.5 to 5 µM | Cc1cccc2c1C(Cc1c(Cl)cnn1C)N(CC1CC3(CNC(=O)O3)C1)C2=O (stereo not drawn) [Compound 470, 2-((3-((4-chloro-1-methyl-1H-pyrazol-5-yl)methyl)-4-methyl-1-oxoisoindolin-2-yl)methyl)-5-oxa-7-azaspiro[3.4]octan-6-one] | – | > 1.5 |
